From publication PMC3476947 (Journal of medicinal chemistry, 2012)

Experiments:
[1] = test system: MBHA DNA substrate (25 base-pair); experiment: Fluorescent intercalator displacement; assay type: binding; settings: 1.5 μM compound, FID counterscreen
[2] = molecular target: T1, HCV NS3 helicase (NS3h_1b(con1)) (Hepatitis C virus genotype 1b, UniProt Q9WMX2); experiment: MBHA with RNA substrate; assay type: biochemical; settings: data not shown
[3] = molecular target: T1, HCV NS3 helicase (NS3h_1b(con1)); experiment: biochemical

T1 sequence (Q9WMX2 1192-1657): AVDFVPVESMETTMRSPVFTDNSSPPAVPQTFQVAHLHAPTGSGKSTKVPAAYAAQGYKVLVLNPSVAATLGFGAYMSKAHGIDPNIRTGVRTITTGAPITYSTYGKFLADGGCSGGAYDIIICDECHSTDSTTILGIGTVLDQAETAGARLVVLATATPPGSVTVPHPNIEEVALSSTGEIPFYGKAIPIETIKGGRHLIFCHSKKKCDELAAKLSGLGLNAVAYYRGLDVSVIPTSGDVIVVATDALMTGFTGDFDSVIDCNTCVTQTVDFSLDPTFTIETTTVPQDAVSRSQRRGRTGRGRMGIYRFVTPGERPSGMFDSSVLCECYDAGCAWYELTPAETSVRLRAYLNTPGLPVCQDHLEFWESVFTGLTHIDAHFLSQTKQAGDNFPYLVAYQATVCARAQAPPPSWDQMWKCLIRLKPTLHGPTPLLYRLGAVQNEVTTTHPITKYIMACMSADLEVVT

Row | Compound | decrease of fluorescence of DNA-bound ethidium bromide [1] | effect on HCV helicase-catalyzed RNA unwinding [2] | IC50 [3] [nM] | effect on HCV helicase-catalyzed DNA unwinding ([3]; MBHA, up to 100 μM)
1 | [Cl][Cd][Cl] [CdCl2] | less than 8% | – | – | –
2 | CO[C@@H]1[C@H](O)C[C@@H](O[C@@H]2C[C@H](Oc3cc4cc5c(c(O)c4c(O)c3C)C(=O)[C@@H](O[C@H]3C[C@@H](O[C@H]4C[C@@H](O[C@H]6C[C@](C)(O)[C@@H](OC(C)=O)[C@H](C)O6)[C@H](O)[C@@H](C)O4)[C@H](O)[C@@H](C)O3)[C@H]([C@H](OC)C(=O)[C@@H](O)[C@@H](C)O)C5)O[C@H](C)[C@@H]2OC(C)=O)O[C@@H]1C [Chromomycin A3] | – | no effect | 150 ± 30 | –
3 | Cc1c2ccncc2c(C)c2c1[nH]c1ccccc12 [ellipticine] | less than 8% | – | – | –
4 | Cc1ccc2c(c1)sc(-c1ccc(N(C)C)cc1)[n+]2C.[Cl-] [thioflavine T] | – | no effect | – | no effect
